Test: DPPH radical scavenging test
Details: compound at 1 mg/mL, 30 min, 517 nm; mean ± SEM
Method: The DPPH assay is widely used, and the simplest and fastest in vitro method for evaluating the antioxidant power of extracts or isolated compounds; it is based on the depletion of the 2,2-diphenyl-1-picrylhydrazyl radical (DPPH˙) by an antioxidant molecule with scavenger activity. This is an extremely sensitive test that can detect the activity of active ingredients present in very low concentrations.
The procedure used was adapted from Wang et al.. Briefly, 0.750 mL of a methanolic solution of each tested compound was treated with 1.5 mL of DPPH solution (0.004%) in MeOH. Samples were stored in the dark at room temperature for 30 min, and the absorbance value was read with a spectrophotometer at 517 nm, which is the maximum peak of absorbance relative to the DPPH radical absorption spectra. The values obtained were fitted into Equation (1) and converted to inhibition percentage (%) of the radical:DPPH inhibition percentage (%) = 100 × [1 − A1/A0](1) where A1 and A0 were, respectively, the absorbance recorded with and without the sample, which are directly proportional to DPPH residual concentration in the sample and DPPH concentration in the control (0.750 of MeOH and 1.5 mL of DPPH solution). […] A linear regression was performed to calculate the sample concentration able to eliminate 50% of DPPH free radicals.

Compound | DPPH (% Inhibition) [%]
O=C(C=Cc1ccccc1)Nc1nc2ccccc2s1 [BZTcin1, N-(benzo[d]thiazol-2-yl)cinnamamide] | 0.51 ± 0.27
COc1ccc(/C=C/C(=O)Nc2nc3ccccc3s2)cc1 [BZTcin3, (E)-N-(benzo[d]thiazol-2-yl)-3-(4-methoxyphenyl)acrylamide] | 5.77 ± 0.00
O=C(N/N=C/c1ccccc1)c1nc2ccccc2s1 [BZTidr1, (E)-N′-benzylidenebenzo[d]thiazole-2-carbohydrazide] | 10.95 ± 0.12
COc1ccc(/C=N/NC(=O)c2nc3ccccc3s2)cc1O [BZTidr5, (E)-N′-(3-hydroxy-4-methoxybenzylidene)benzo[d]thiazole-2-carbohydrazide] | 44.00 ± 3.56

Test: FRAP (Ferric Reducing Antioxidant Power) assay
Details: Trolox standard, 37 °C 10 min, 593 nm; mean ± SEM
Description: The FRAP (Ferric Reducing Antioxidant Power) test allows the measurement of the ability of antioxidants to reduce ferric ion to ferrous. This method represents one of the simplest, quickest and least expensive methods for the determination of reducing properties on oxidized species in vitro.
The FRAP test (Ferric Reducing Antioxidant Power) is based on a colorimetric reaction and evaluates the ability of a sample of reducing ferric ions to ferrous ion while complexed with TPTZ (2,4,6-trispyridil-s-triazine). The FRAP solution was prepared from 0.1 M acetate buffer (pH 3.6), 10 mmol/L of TPTZ in 40 mM HCl, and 20 mM solution of FeCl3, with a 10:1:1 ratio, as described. Then, 1.9 mL of this solution was incubated with 0.1 mL of the sample solution at 37 °C for 10 min. The absorbance was read with a UV-Vis spectrophotometer at a 593 nm wavelength, relative to the maximum peak of absorbance of Fe^2+-TPTZ complex. Trolox® was used as a standard and the results are expressed as µmolTE/g.

Compound | FRAP [µmolTE/g]
O=C(C=Cc1ccccc1)Nc1nc2ccccc2s1 [BZTcin1, N-(benzo[d]thiazol-2-yl)cinnamamide] | 98.69 ± 2.06
COc1ccc(/C=C/C(=O)Nc2nc3ccccc3s2)cc1 [BZTcin3, (E)-N-(benzo[d]thiazol-2-yl)-3-(4-methoxyphenyl)acrylamide] | 42.12 ± 1.35
O=C(N/N=C/c1ccccc1)c1nc2ccccc2s1 [BZTidr1, (E)-N′-benzylidenebenzo[d]thiazole-2-carbohydrazide] | 282.16 ± 15.03
COc1ccc(/C=N/NC(=O)c2nc3ccccc3s2)cc1O [BZTidr5, (E)-N′-(3-hydroxy-4-methoxybenzylidene)benzo[d]thiazole-2-carbohydrazide] | 1758.16 ± 60.41

Test: UV spectra in solution (MeOH-DMSO): λmax and molar extinction coefficient
Type: physicochemical
Details: at λmax, Lambert-Beer equation; in M-1 cm-1 (unit assumed)
Method: We next investigated the protective potential against UV radiation of each compound. Specifically, in vitro tests were conducted to determine the parameters related to absorption in the UV spectrum and those fundamental to the relative evaluation of the filtering potential and thus candidature as possible UV sunscreen ingredients of the candidates under examination, including λ critical and SPF (sun protection factor). Since the SPF is correlated to the UV quantitative absorption of the substances, the wavelength of maximum absorption (λmax) and the molar extinction coefficient (ε) of the derivatives in solution (MeOH-DMSO) were evaluated (Figures S1 and S2, Supplementary Materials). The UV spectra of the compounds BZTidr1–6 and BZTcin1–5 were recorded in the UVA-UVB range (290–400 nm) to evaluate their profile and compare it to that of the PBSA, a commercial UVB filter that has a λmax of 302 nm. After this peak, the absorbance of PBSA drops, reaching almost zero in the 325 nm range, and thus not providing absorption in the UVA region.
Once the λmax of each derivative was established, the molar extinction coefficient ε was calculated by applying the Lambert-Beer equation (Table S1, Supplementary Materials): the higher this value, the greater the ability of the compound under examination to absorb UV radiation. […] The excellent values of BZTidr1, BZTidr2 and BZTidr3 are ascribed to the aforementioned hyperchromic shift. In regard to the BZTcin1–5 series, the molar extinction coefficients calculated were very high, and the best values were those of BZTcin1, BZTcin2 and BZTcin3, also attributable to the hyperchromic shift of the absorption spectra. For both series, the excellent absorption capacity of ultraviolet radiation can be traced back to the high π-type conjugation that characterizes them.

ε (molar extinction coefficient) | Compound
33033.71 | O=C(C=Cc1ccccc1)Nc1nc2ccccc2s1 [BZTcin1, N-(benzo[d]thiazol-2-yl)cinnamamide]
36271.07 | COc1ccc(/C=C/C(=O)Nc2nc3ccccc3s2)cc1 [BZTcin3, (E)-N-(benzo[d]thiazol-2-yl)-3-(4-methoxyphenyl)acrylamide]
33223.32 | O=C(N/N=C/c1ccccc1)c1nc2ccccc2s1 [BZTidr1, (E)-N′-benzylidenebenzo[d]thiazole-2-carbohydrazide]
23462.08 | COc1ccc(/C=N/NC(=O)c2nc3ccccc3s2)cc1O [BZTidr5, (E)-N′-(3-hydroxy-4-methoxybenzylidene)benzo[d]thiazole-2-carbohydrazide]

Same assay, conditions: solution in MeOH-DMSO, 290–400 nm

λmax [nm] | Compound
317.0 | O=C(C=Cc1ccccc1)Nc1nc2ccccc2s1 [BZTcin1, N-(benzo[d]thiazol-2-yl)cinnamamide]
334.5 | COc1ccc(/C=C/C(=O)Nc2nc3ccccc3s2)cc1 [BZTcin3, (E)-N-(benzo[d]thiazol-2-yl)-3-(4-methoxyphenyl)acrylamide]
319.4 | O=C(N/N=C/c1ccccc1)c1nc2ccccc2s1 [BZTidr1, (E)-N′-benzylidenebenzo[d]thiazole-2-carbohydrazide]
342.4 | COc1ccc(/C=N/NC(=O)c2nc3ccccc3s2)cc1O [BZTidr5, (E)-N′-(3-hydroxy-4-methoxybenzylidene)benzo[d]thiazole-2-carbohydrazide]

Test: In vitro filtering parameters of O/W sunscreen formulation containing 3% compound (modified Diffey-Robson, PMMA plates)
Details: 3% in formulation, before irradiation
Description: All synthesized compounds were formulated at 3% and their photoprotective efficacy, determined by spectrophotometric measurements using the modified Diffey-Robson method, was compared with that of the lead compound PBSA (used at 3% in the same formulation) and using the base without active as a control (Table 2).
The synthesized compounds were incorporated at a concentration of 3% in a typical oil-in-water sunscreen formulation, to evaluate the filtering parameters, and have the following ingredient composition:
INCI (International Nomenclature Cosmetic Ingredients): aqua, glycerin, Euxyl PE 9010, xanthan gum, Tribehenin PEG-20 Esters, cetearyl alcohol, dicaprylyl carbonate, PPG-26-Buteth-26 (and) PEG-40 Hydrogenated Castor Oil (and) water, C12-C15 Alkyl Benzoate, and Sodium hydroxide (sol. 10%).
As previously reported the protocol indicates to spread 32.5 mg of each formulation on 25 cm^2 PMMA plates with the fingers. Each formulation was tested in triplicate, and five measurements were recorded for each dish, following a 15–30 min incubation in the dark at room temperature. UV transmittance data was recorded using a UV-VIS spectrophotometer in the range 290–400 nm. The blank plate, SPF, UVA-PF and critical wavelength were obtained by SPF Calculator software (version 2.1), Shimadzu, Milan, Italy).

Compound | SPF | UVA/UVB | UVAPF0 | λc [nm]
O=C(C=Cc1ccccc1)Nc1nc2ccccc2s1 [BZTcin1, N-(benzo[d]thiazol-2-yl)cinnamamide] | 1.74 | 0.93 | 1.38 | 370
COc1ccc(/C=C/C(=O)Nc2nc3ccccc3s2)cc1 [BZTcin3, (E)-N-(benzo[d]thiazol-2-yl)-3-(4-methoxyphenyl)acrylamide] | 1.32 | 1.07 | 1.38 | 384
O=C(N/N=C/c1ccccc1)c1nc2ccccc2s1 [BZTidr1, (E)-N′-benzylidenebenzo[d]thiazole-2-carbohydrazide] | 1.48 | 1.00 | 1.37 | 374
COc1ccc(/C=N/NC(=O)c2nc3ccccc3s2)cc1O [BZTidr5, (E)-N′-(3-hydroxy-4-methoxybenzylidene)benzo[d]thiazole-2-carbohydrazide] | 1.60 | 1.06 | 1.58 | 387

Test: Photostability study of 3% formulation (post-irradiation filtering parameters)
Details: 3% in formulation, post irradiation
Description: To outline the efficacy and safety profile of a sunscreen formulation, it is essential to provide data relating to photostability. It is possible to provide photodegradation data by recording, pre- and post-irradiation, the transmittance of PMMA plates with finger-coat formulations subjected to a dose of UVA capable of causing erythema, according to the criteria of Garoli et al.. By means of Equations (2) and (3) it was possible to evaluate the residual percentage of SPF in vitro and of UVA-PF for all the prepared formulations. Of greatest interest are the values obtained for the derivatives BZTcin2 and BZTcin4.
To determine the photostability, the previously reported method was adopted, which consists in preparing each plate as mentioned above and subjecting it to solar irradiation quantified as the minimum dose of UVA equivalent to an effective radiant exposure of erythema. The protocol stipulates that, before and after exposure to sunlight, the transmission of the sun protection layer in the range of 290–400 nm is recorded.
Using Equations (2) and (3) below, the residual percentage of SPF in vitro (% SPFeff.) and UVA-PF (% UVA-PFeff.) have been obtained, which, if greater than or equal to 80, can classify a filter as photostable. %SPFeff. = in vitro SPFafter/in vitro SPFbefore × 100(2) %UVA − PFeff. = UVA − PFafter/UVA − PFbefore × 100(3)

Compound | SPF | UVA/UVB | UVAPF | λc [nm]
O=C(C=Cc1ccccc1)Nc1nc2ccccc2s1 [BZTcin1, N-(benzo[d]thiazol-2-yl)cinnamamide] | 2.33 | 0.93 | 1.48 | 364
COc1ccc(/C=C/C(=O)Nc2nc3ccccc3s2)cc1 [BZTcin3, (E)-N-(benzo[d]thiazol-2-yl)-3-(4-methoxyphenyl)acrylamide] | 1.32 | 1.07 | 1.36 | 384
O=C(N/N=C/c1ccccc1)c1nc2ccccc2s1 [BZTidr1, (E)-N′-benzylidenebenzo[d]thiazole-2-carbohydrazide] | 1.42 | 1.00 | 1.42 | 372
COc1ccc(/C=N/NC(=O)c2nc3ccccc3s2)cc1O [BZTidr5, (E)-N′-(3-hydroxy-4-methoxybenzylidene)benzo[d]thiazole-2-carbohydrazide] | 1.60 | 1.06 | 1.56 | 387

Test: not given
Details: not given

melting point [°C] | Compound
260 to 262 | COc1ccc(/C=C/C(=O)Nc2nc3ccccc3s2)cc1 [BZTcin3, (E)-N-(benzo[d]thiazol-2-yl)-3-(4-methoxyphenyl)acrylamide]
227 to 230 | O=C(N/N=C/c1ccccc1)c1nc2ccccc2s1 [BZTidr1, (E)-N′-benzylidenebenzo[d]thiazole-2-carbohydrazide]

From publication PMC9822352, “Design, Synthesis and Evaluation of New Multifunctional Benzothiazoles as Photoprotective, Antioxidant and Antiproliferative Agents” (Molecules, 2022)
